The source made the active and inactive calls. No cut-off for these calls is given here.
How the values were obtained:
Quadruplex DNA [1] = assay: Induction of conformational changes in synthetic cMYC G-quadruplex DNA at 1 to 5 equivalents after 5 mins by CD spectra analysis; type: nucleic-acid assay
Homo sapiens [2] = species: Homo sapiens; assay: Induction of telomeric DNA damage in human BJeH-LT cells expressing human TERT assessed as increase in TIF positive cells at 0.5 uM after 24 hrs by immunofluorescence assay; type: functional, cell-based
Quadruplex DNA [3] = assay: Binding affinity to synthetic cMYC G-quadruplex DNA assessed as residual binding at 60 uM after 4 mins by UV-Vis spectrophotometric analysis relative to control; type: nucleic-acid assay
Quadruplex DNA [4] = assay: Binding affinity to synthetic c-Kit2 G-quadruplex DNA assessed as residual binding at 60 uM after 4 mins by UV-Vis spectrophotometric analysis relative to control; type: nucleic-acid assay
Quadruplex DNA [5] = assay: Binding affinity to synthetic modified telomeric 24 G-quadruplex DNA assessed as melting temperature compound:DNA ratio of 4:1 by 1H NMR spectroscopic analysis; type: nucleic-acid assay
Quadruplex DNA [6] = assay: Binding affinity to synthetic MYC 22 G-quadruplex DNA assessed as melting temperature compound:DNA ratio of 4:1 by 1H NMR spectroscopic analysis; type: nucleic-acid assay
dsDNA [7] = assay: Binding affinity to synthetic 12-mer duplex DNA assessed as melting temperature compound:DNA ratio of 4:1 by 1H NMR spectroscopic analysis; type: nucleic-acid assay
Quadruplex DNA [8] = assay: Binding affinity to synthetic c-Kit1 G-quadruplex DNA assessed as residual binding at 60 uM after 4 mins by UV-Vis spectrophotometric analysis relative to control; type: nucleic-acid assay
HeLa [9] = assay: Inhibition of colony formation in human HeLa cells at 0.5 to 2 uM after 10 days by methylene blue staining-based assay; type: functional
dsDNA [10] = assay: Induction of conformational changes in synthetic 27-mer duplex DNA at 1 to 5 equivalents after 5 mins by CD spectra analysis; type: nucleic-acid assay
dsDNA [11] = assay: Binding affinity to synthetic 27-mer duplex DNA assessed as melting temperature compound:DNA ratio of 5:1 after 5 mins by CD spectra analysis (reference value: 75 degreeC); type: nucleic-acid assay
BJ = assay: Cytotoxicity against in human BJ cells expressing human TERT assessed as reduction in cell viability at 1 to 2 uM incubated for 6 days by trypan blue exclusion assay; type: cell-based; details: 144 h
Quadruplex DNA [12] = assay: Binding affinity to human TERT1 G-quadruplex DNA assessed as residual binding at 60 uM after 4 mins by UV-Vis spectrophotometric analysis relative to control; type: nucleic-acid assay
Quadruplex DNA [13] = assay: Binding affinity to synthetic telomeric 26 G-quadruplex DNA assessed as melting temperature compound:DNA ratio of 5:1 after 5 mins by CD spectra analysis (reference value: 49 degreeC); type: nucleic-acid assay
dsDNA [14] = assay: Binding affinity to synthetic 27-mer duplex DNA assessed as residual binding at 60 uM after 4 mins by UV-Vis spectrophotometric analysis relative to control; type: nucleic-acid assay
Quadruplex DNA [15] = assay: Induction of conformational changes in synthetic telomeric 26 G-quadruplex DNA at 1 to 5 equivalents after 5 mins by CD spectra analysis; type: nucleic-acid assay
Quadruplex DNA [16] = assay: Binding affinity to synthetic telomeric 26 G-quadruplex DNA assessed as residual binding at 60 uM after 4 mins by UV-Vis spectrophotometric analysis relative to control; type: nucleic-acid assay
Homo sapiens [17] = species: Homo sapiens; assay: Induction of telomeric DNA damage in human BJeH-LT cells expressing human TERT assessed as increase in gamma-histone H2AX levels at 0.5 uM after 24 hrs by immunofluorescence assay; type: functional, cell-based
Quadruplex DNA [18] = assay: Binding affinity to synthetic cMYC G-quadruplex DNA assessed as melting temperature compound:DNA ratio of 5:1 after 5 mins by CD spectra analysis (reference value: 82 degreeC); type: nucleic-acid assay
HeLa [19] = assay: Inhibition of colony formation in human HeLa cells at 2 uM after 10 days by methylene blue staining-based assay; type: functional, cell-based
Quadruplex DNA [20] = assay: Binding affinity to Cy5-fluorescently labeled synthetic Telomeric 26 G-quadruplex DNA by microscale thermophoresis assay; type: nucleic-acid assay
Quadruplex DNA [21] = assay: Binding affinity to Cy5-fluorescently labeled synthetic MYC 22 G-quadruplex DNA by microscale thermophoresis assay; type: nucleic-acid assay

Compound	Activity (Homo sapiens [2])	Activity (Quadruplex DNA [3]) [%]	Activity (Quadruplex DNA [4]) [%]	Activity (Quadruplex DNA [8]) [%]	Activity (Quadruplex DNA [12]) [%]	Activity (dsDNA [14]) [%]	Activity (Quadruplex DNA [16]) [%]	Activity (Homo sapiens [17])	inhibition (HeLa [19])	other results
O=C1c2ccccc2C(=O)c2c1oc1c3c(ccc21)OCN(C1CCCCC1)C3	Active	86	82	70	74	18	86	Active		Activity (Quadruplex DNA [1]): Active; Activity (Quadruplex DNA [5]): Active; Activity (Quadruplex DNA [6]): Active; Activity (dsDNA [7]): inactive; MED (HeLa [9]): 2 µM; Activity (dsDNA [10]): inactive; Tm (dsDNA [11]): 76 °C; Activity (BJ): Toxic; Tm (Quadruplex DNA [13]): 49 °C; Activity (Quadruplex DNA [15]): Active; Tm (Quadruplex DNA [18]): > 90 °C
O=C1c2ccccc2C(=O)c2c1oc1c3c(ccc21)OCN(CC1CCCO1)C3 (stereo not given)	Active	90	83	88	87	20	78	Active	Active	
O=C1c2ccccc2C(=O)c2c1oc1c3c(ccc21)OCN(CC1CCS(=O)(=O)C1)C3 (stereo not given)	inactive	73	68	72	76	16	75	inactive	Active	
O=C1c2ccccc2C(=O)c2c1oc1c3c(ccc21)OCN(CCCN1CCOCC1)C3	Active	89	84	77	92	33	80	Active	Active	
O=C1c2ccccc2C(=O)c2c1oc1c3c(ccc21)OCN(CCC1=CCCCC1)C3	Active	84	67	55	73	16	73	Active	Active	
O=C1c2ccccc2C(=O)c2c1oc1c3c(ccc21)OCN(Cc1ccco1)C3	Active	93	92	90	91	2	86	Active	Active	
O=C1c2ccccc2C(=O)c2c1oc1c3c(ccc21)OCN(Cc1ccccc1)C3	Active	87	83	76	78	12	80	Active	Active	
O=C1c2ccccc2C(=O)c2c1oc1c3c(ccc21)OCN(CCCn1ccnc1)C3	Active	94	91	85	82	46	80	Active	Active	
CC(c1ccccc1)N1COc2ccc3c4c(oc3c2C1)C(=O)c1ccccc1C4=O (stereo not given)	Active	84	80	78	82	0	80	Active		Activity (Quadruplex DNA [1]): Active; Kd (Quadruplex DNA [20]): 26 µM; Kd (Quadruplex DNA [21]): 13 µM; Activity (Quadruplex DNA [5]): Active; Activity (Quadruplex DNA [6]): Active; Activity (dsDNA [7]): inactive; Activity (dsDNA [10]): inactive; Tm (dsDNA [11]): 76 °C; Activity (BJ): Non-Toxic; Tm (Quadruplex DNA [13]): 50 °C; Activity (Quadruplex DNA [15]): Active; Tm (Quadruplex DNA [18]): > 90 °C
O=C1c2ccccc2C(=O)c2c1oc1c3c(ccc21)OCN(Cc1cccnc1)C3	inactive	94	88	90	89	28	79	inactive	Active	
CC(=O)c1c(C)oc2c1c1c(c3ccccc32)OCN(CCCN2CCOCC2)C1	inactive	74	70	75	78	22	76	inactive	Active	

Source: ChEMBL document CHEMBL4330082, “Tailoring a lead-like compound targeting multiple G-quadruplex structures” (Eur J Med Chem, 2019)
